Measurements published in PMC6540285, “Evaluation of Protein Kinase Inhibitors with PLK4 Cross-Over Potential in a Pre-Clinical Model of Cancer” (International Journal of Molecular Sciences, 2019).

Experiments:
DYRK3 = DYRK3 (Homo sapiens, UniProt O43781); test: SelectScreen kinase profiling, ZLYTE; type: biochemical; conditions: DYRK3, 10 µM
CAMK2G (CaMKII gamma) = CAMK2G (CaMKII gamma) (Homo sapiens, UniProt Q13555); test: SelectScreen kinase profiling, LanthaScreen binding
NUAK1 (ARK5) = NUAK1 (ARK5) (Homo sapiens, UniProt O60285); test: SelectScreen kinase profiling, Adapta; type: biochemical
TGFBR1 (ALK5) = TGFBR1 (ALK5) (Homo sapiens, UniProt P36897); test: SelectScreen kinase profiling, LanthaScreen binding
Text: Kinase Technology % Inhibition Avg Kinase Technology % Inhibition Avg

MAP2K4 (MEK4) = MAP2K4 (MEK4) (Homo sapiens, UniProt P45985); test: as above
MAP3K5 (ASK1) = MAP3K5 (ASK1) (Homo sapiens, UniProt Q99683); test: as above
RPS6KA2 (RSK3) = RPS6KA2 (RSK3) (Homo sapiens, UniProt Q15349); test: SelectScreen kinase profiling, ZLYTE; type: biochemical
PAK4 = PAK4 (Homo sapiens, UniProt O96013); test: SelectScreen kinase profiling, ZLYTE; type: biochemical; conditions: PAK4, 10 µM
HUNK = HUNK (Homo sapiens, UniProt P57058); test: SelectScreen kinase profiling, LanthaScreen binding
[1] = biological target: MAP2K6 (MKK6) S207E T211E (Homo sapiens, UniProt P52564, S207E/T211E); test: as above
GSK3B (GSK3 beta) = GSK3B (GSK3 beta) (Homo sapiens, UniProt P49841); test: SelectScreen kinase profiling, ZLYTE; type: biochemical
FGFR3 K650M = FGFR3 K650M (Homo sapiens, UniProt P22607, K650M); test: SelectScreen kinase profiling, LanthaScreen binding
NEK9 = NEK9 (Homo sapiens, UniProt Q8TD19); test: SelectScreen kinase profiling, ZLYTE; type: biochemical; conditions: NEK9, 10 µM
ERBB4 (HER4) = ERBB4 (HER4) (Homo sapiens, UniProt Q15303); test: SelectScreen kinase profiling, ZLYTE; type: biochemical
GRK1 = GRK1 (Homo sapiens, UniProt Q15835); test: SelectScreen kinase profiling, LanthaScreen binding; conditions: GRK1, 10 µM
PRKG1 = PRKG1 (Homo sapiens, UniProt Q13976); test: SelectScreen kinase profiling, ZLYTE; type: biochemical; conditions: PRKG1, 10 µM
MAPK1 (ERK2) = MAPK1 (ERK2) (Homo sapiens, UniProt P28482); test: SelectScreen kinase profiling, ZLYTE; type: biochemical
SGK (SGK1) = SGK (SGK1) (Homo sapiens, UniProt O00141); test: SelectScreen kinase profiling, ZLYTE; type: biochemical
ICK = ICK (Homo sapiens, UniProt Q9UPZ9); test: SelectScreen kinase profiling, LanthaScreen binding
RT and MB cells = test: Cell cycle analysis (PI flow cytometry); type: cell-based; conditions: 2µM
Protocol: Cell cycle analysis was performed by flow cytometry of cells stained with Propidium Iodide (PI) (Thermo Fisher Scientific, Carlsbad, CA, USA) according to manufacturer’s instructions. Cells treated with the top PLK4i candidates and 0.1% DMSO (control) were fixed in 80% ethanol overnight, stained with PI, and then subjected to flow cytometric analysis using a BD Fortessa instrument (BD Biosciences, San Jose, CA, USA). Data was analyzed using Modfit LT from Verity Software House (Topsham, ME, USA). All experiments were performed in triplicate.

STK24 (MST3) = STK24 (MST3) (Homo sapiens, UniProt Q9Y6E0); test: SelectScreen kinase profiling, ZLYTE; type: biochemical
Text: (§1) Kinase Technology % Inhibition Avg Kinase Technology % Inhibition Avg […]

SYK = SYK (Homo sapiens, UniProt P43405); test: SelectScreen kinase profiling, ZLYTE; type: biochemical
Text: as §1

TBK1 = TBK1 (Homo sapiens, UniProt Q9UHD2); test: SelectScreen kinase profiling, ZLYTE; type: biochemical; conditions: TBK1, 10 µM
Text: as §1

TEK (TIE2) Y897S = TEK (TIE2) Y897S (Homo sapiens, UniProt Q02763, Y897S); test: SelectScreen kinase profiling, ZLYTE; type: biochemical
Text: as §1

TAOK2 (TAO1) = TAOK2 (TAO1) (Homo sapiens, UniProt Q9UL54); test: SelectScreen kinase profiling, ZLYTE; type: biochemical
Text: as §1

TNK1 = TNK1 (Homo sapiens, UniProt Q13470); test: SelectScreen kinase profiling, ZLYTE; type: biochemical; conditions: TNK1, 10 µM
Text: as §1

STK3 (MST2) = STK3 (MST2) (Homo sapiens, UniProt Q13188); test: SelectScreen kinase profiling, ZLYTE; type: biochemical
Text: as §1

TXK = TXK (Homo sapiens, UniProt P42681); test: SelectScreen kinase profiling, ZLYTE; type: biochemical
Text: as §1

STK25 (YSK1) = STK25 (YSK1) (Homo sapiens, UniProt O00506); test: SelectScreen kinase profiling, ZLYTE; type: biochemical
Text: as §1

TEK (Tie2) = TEK (Tie2) (Homo sapiens, UniProt Q02763); test: SelectScreen kinase profiling, ZLYTE; type: biochemical
Text: as §1

TYRO3 (RSE) = TYRO3 (RSE) (Homo sapiens, UniProt Q06418); test: SelectScreen kinase profiling, ZLYTE; type: biochemical
Text: as §1

TYK2 = TYK2 (Homo sapiens, UniProt P29597); test: SelectScreen kinase profiling, ZLYTE; type: biochemical; conditions: TYK2, 10 µM
Text: as §1

STK4 (MST1) = STK4 (MST1) (Homo sapiens, UniProt Q13043); test: SelectScreen kinase profiling, ZLYTE; type: biochemical
Text: as §1

CAMKK2 (CaMKK beta) = CAMKK2 (CaMKK beta) (Homo sapiens, UniProt Q96RR4); test: SelectScreen kinase profiling, LanthaScreen binding
JAK1 = JAK1 (Homo sapiens, UniProt P23458); test: SelectScreen kinase profiling, ZLYTE; type: biochemical; conditions: JAK1, 10 µM
STK16 (PKL12) = STK16 (PKL12) (Homo sapiens, UniProt O75716); test: SelectScreen kinase profiling, LanthaScreen binding
CSNK1A1L = CSNK1A1L (Homo sapiens, UniProt Q8N752); test: SelectScreen kinase profiling, ZLYTE; type: biochemical
Chain of CSNK1A1L (Q8N752 whole entry): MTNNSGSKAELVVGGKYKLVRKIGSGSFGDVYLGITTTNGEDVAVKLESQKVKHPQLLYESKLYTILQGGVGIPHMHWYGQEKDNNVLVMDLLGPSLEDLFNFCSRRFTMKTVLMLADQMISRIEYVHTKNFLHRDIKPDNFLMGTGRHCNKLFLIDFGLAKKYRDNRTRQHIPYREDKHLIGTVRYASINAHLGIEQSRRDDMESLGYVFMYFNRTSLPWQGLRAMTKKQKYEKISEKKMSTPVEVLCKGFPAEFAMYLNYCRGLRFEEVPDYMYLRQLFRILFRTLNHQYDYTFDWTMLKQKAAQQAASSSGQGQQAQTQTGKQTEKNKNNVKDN

Chain of PAK4 (O96013 whole entry): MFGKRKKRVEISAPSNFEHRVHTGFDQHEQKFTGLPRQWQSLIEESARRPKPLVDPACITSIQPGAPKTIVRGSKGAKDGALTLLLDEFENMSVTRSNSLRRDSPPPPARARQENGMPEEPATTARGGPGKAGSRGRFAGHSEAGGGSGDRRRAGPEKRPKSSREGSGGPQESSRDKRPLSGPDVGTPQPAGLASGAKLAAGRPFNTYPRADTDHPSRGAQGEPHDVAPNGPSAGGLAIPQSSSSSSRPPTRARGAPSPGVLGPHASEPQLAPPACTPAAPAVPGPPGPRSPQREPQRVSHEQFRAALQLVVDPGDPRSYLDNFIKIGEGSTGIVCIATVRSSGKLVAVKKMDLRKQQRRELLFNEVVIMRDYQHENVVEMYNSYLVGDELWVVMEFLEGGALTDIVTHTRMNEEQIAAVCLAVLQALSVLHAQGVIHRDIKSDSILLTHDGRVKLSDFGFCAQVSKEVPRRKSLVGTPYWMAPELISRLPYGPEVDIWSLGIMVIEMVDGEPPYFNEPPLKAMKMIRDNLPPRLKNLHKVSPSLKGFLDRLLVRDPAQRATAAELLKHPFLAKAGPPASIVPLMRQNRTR
Chain of TYRO3 (RSE) (Q06418 41-890): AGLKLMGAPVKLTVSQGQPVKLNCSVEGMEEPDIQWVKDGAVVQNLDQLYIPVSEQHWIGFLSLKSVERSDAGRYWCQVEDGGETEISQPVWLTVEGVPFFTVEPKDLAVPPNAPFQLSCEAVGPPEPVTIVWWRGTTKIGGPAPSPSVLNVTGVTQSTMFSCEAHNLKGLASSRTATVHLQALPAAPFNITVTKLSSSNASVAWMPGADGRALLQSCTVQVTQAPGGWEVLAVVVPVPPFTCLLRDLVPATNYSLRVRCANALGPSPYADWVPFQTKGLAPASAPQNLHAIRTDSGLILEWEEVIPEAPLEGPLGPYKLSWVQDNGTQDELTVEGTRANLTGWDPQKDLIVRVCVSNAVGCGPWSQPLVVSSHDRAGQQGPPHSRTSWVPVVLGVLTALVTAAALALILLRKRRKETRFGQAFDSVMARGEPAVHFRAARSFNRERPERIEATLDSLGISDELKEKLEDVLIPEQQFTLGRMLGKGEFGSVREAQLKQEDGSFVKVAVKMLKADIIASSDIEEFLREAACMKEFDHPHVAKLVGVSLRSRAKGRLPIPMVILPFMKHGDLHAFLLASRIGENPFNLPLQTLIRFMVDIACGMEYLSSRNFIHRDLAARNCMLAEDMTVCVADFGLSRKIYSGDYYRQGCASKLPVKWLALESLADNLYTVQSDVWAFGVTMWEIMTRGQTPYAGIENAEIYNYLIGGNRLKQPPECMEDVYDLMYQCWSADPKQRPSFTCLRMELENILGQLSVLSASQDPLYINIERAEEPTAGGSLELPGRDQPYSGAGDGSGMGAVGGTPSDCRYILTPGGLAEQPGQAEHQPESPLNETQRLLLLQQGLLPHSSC
Chain of GSK3B (GSK3 beta) (P49841 whole entry): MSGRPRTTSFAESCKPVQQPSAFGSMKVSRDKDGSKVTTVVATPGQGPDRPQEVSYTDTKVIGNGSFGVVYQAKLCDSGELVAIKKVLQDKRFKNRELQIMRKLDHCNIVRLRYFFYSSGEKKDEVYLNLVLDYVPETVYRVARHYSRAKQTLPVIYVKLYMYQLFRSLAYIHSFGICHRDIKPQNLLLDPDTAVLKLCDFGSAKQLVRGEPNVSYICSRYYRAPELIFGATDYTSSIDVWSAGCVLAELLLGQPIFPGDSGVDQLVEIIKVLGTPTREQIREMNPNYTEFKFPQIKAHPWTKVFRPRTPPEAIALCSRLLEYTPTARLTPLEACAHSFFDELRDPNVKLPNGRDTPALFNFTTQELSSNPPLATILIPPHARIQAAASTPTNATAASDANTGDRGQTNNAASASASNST
Chain of NUAK1 (ARK5) (O60285 whole entry): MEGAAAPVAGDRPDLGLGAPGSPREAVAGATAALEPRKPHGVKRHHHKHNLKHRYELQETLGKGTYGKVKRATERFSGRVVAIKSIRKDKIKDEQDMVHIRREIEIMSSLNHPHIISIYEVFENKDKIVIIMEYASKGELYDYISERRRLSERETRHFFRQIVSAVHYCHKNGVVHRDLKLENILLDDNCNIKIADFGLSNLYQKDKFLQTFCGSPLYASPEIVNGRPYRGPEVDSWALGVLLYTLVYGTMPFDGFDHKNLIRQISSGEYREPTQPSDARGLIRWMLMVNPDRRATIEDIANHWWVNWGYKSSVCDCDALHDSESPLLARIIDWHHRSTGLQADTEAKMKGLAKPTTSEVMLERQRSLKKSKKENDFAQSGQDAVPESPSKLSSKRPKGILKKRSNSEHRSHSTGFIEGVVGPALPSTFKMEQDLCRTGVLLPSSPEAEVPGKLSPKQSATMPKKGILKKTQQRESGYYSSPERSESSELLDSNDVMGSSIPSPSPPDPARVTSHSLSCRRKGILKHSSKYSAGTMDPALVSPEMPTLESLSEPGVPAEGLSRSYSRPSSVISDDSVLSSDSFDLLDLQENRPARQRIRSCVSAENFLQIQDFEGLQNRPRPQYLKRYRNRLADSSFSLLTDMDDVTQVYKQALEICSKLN
Chain of STK4 (MST1) (Q13043 whole entry): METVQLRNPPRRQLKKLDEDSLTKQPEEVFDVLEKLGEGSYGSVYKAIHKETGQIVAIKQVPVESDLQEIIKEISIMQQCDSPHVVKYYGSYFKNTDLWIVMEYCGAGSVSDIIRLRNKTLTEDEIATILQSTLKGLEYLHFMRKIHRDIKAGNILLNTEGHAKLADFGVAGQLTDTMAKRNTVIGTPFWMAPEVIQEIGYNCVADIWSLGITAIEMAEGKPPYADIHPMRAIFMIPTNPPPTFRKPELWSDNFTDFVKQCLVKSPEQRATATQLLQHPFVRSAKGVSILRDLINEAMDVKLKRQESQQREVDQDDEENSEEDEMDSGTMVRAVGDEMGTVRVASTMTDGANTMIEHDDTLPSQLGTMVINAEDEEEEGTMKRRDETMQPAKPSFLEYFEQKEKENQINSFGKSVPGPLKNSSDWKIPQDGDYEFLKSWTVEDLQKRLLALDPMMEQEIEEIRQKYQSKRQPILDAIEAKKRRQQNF
Chain of TEK (Tie2) (Q02763 23-1124): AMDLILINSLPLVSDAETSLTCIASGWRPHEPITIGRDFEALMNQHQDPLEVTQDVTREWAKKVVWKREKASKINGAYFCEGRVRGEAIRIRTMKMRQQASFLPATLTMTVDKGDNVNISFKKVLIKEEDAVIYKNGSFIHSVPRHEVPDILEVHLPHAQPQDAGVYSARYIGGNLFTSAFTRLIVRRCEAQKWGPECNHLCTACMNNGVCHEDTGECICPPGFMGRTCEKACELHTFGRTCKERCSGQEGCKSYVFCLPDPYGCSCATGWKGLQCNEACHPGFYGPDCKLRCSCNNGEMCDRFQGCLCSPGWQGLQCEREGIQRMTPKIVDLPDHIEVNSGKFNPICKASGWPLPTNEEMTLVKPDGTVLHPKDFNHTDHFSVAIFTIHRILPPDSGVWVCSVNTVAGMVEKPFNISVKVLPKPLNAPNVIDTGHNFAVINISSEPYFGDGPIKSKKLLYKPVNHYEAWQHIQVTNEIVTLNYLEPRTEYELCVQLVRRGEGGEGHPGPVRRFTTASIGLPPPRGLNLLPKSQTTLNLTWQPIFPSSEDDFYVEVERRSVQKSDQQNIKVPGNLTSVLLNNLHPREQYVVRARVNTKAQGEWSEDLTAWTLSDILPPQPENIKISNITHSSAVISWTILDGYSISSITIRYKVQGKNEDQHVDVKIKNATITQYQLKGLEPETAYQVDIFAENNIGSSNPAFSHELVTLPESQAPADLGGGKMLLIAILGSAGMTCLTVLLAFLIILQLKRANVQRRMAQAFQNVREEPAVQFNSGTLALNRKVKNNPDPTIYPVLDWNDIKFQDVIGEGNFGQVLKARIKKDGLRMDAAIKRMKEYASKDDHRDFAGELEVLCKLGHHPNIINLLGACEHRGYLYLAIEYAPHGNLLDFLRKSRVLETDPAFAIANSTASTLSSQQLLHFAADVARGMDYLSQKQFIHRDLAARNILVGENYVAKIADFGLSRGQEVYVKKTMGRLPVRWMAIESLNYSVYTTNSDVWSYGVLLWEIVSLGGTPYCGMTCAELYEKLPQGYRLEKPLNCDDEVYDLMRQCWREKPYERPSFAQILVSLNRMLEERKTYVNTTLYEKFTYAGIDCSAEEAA
Chain of CAMK2G (CaMKII gamma) (Q13555 whole entry): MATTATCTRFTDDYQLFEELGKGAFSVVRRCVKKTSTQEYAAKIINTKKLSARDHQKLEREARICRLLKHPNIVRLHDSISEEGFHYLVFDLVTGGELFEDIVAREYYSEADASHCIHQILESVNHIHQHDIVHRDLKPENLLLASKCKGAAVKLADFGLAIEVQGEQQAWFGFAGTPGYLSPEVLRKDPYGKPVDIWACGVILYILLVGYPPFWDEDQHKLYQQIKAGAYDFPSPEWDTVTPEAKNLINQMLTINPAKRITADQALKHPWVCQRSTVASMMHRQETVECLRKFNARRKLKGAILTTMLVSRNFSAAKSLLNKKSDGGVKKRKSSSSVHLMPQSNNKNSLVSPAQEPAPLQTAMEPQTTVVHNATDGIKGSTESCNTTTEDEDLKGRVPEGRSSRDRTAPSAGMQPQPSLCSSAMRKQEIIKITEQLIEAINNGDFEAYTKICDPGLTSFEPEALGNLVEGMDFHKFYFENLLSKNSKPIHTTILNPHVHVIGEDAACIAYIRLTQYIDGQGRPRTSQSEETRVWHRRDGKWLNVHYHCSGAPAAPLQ

O=C(c1ccc(/C=C/c2n[nH]c3ccccc23)cc1)N1CCNCC1 [KW-2449]
inhibition at 10 µM (DYRK3): 86%
inhibition at 10 µM (CAMK2G (CaMKII gamma)): -110%
inhibition at 10 µM (NUAK1 (ARK5)): 100%
inhibition at 10 µM (TGFBR1 (ALK5)): 85%
inhibition at 10 µM (MAP2K4 (MEK4)): 79%
inhibition at 10 µM (MAP3K5 (ASK1)): 63%
inhibition at 10 µM (RPS6KA2 (RSK3)): 96%
inhibition at 10 µM (PAK4): 94%
inhibition at 10 µM (HUNK): 84%
inhibition at 10 µM [1]: 82%
inhibition at 10 µM (GSK3B (GSK3 beta)): 66%
inhibition at 10 µM (FGFR3 K650M): 22%
inhibition at 10 µM (NEK9): 70%
inhibition at 10 µM (ERBB4 (HER4)): 55%
inhibition at 10 µM (GRK1): 25%
inhibition at 10 µM (PRKG1): 77%
inhibition at 10 µM (MAPK1 (ERK2)): 45%
inhibition at 10 µM (SGK (SGK1)): 98%
inhibition at 10 µM (ICK): 74%
polyploidy (cell cycle analysis) (RT and MB cells): induction of polyploidy with 2µM KW-2449 in all cell lines except DAOY
inhibition at 10 µM (STK24 (MST3)): 85%
inhibition at 10 µM (SYK): 98%
inhibition at 10 µM (TBK1): 99%
inhibition at 10 µM (TEK (TIE2) Y897S): 80%
inhibition at 10 µM (TAOK2 (TAO1)): 87%
inhibition at 10 µM (TNK1): 94%
inhibition at 10 µM (STK3 (MST2)): 77%
inhibition at 10 µM (TXK): 94%
inhibition at 10 µM (STK25 (YSK1)): 45%
inhibition at 10 µM (TEK (Tie2)): 99%
inhibition at 10 µM (TYRO3 (RSE)): 92%
inhibition at 10 µM (TYK2): 99%
inhibition at 10 µM (STK4 (MST1)): 93%
inhibition at 10 µM (CAMKK2 (CaMKK beta)): 86%
inhibition at 10 µM (JAK1): 94%
inhibition at 10 µM (STK16 (PKL12)): 83%
inhibition at 10 µM (CSNK1A1L): 20%
